Legend:
[1] = Inhibition of CENP-E in human SK-N-FI cells assessed as decrease in cell viability after 72 hrs by Cell-titer Glo reagent assay
[2] = Inhibition of CENP-E in human RKO cells expressing BRAF mutant assessed as decrease in cell viability after 72 hrs by Cell-titer Glo reagent assay
[3] = Inhibition of CENP-E in human SW620 cells expressing KRAS mutant assessed as decrease in cell viability after 72 hrs by Cell-titer Glo reagent assay
[4] = Inhibition of CENP-E in human HCT-116 cells expressing KRAS mutant assessed as decrease in cell viability after 72 hrs by Cell-titer Glo reagent assay
[5] = Inhibition of CENP-E in human SK-N-FI cells assessed as decrease in cell viability after 72 hrs in presence of ERK1 siRNA by Cell-titer Glo reagent assay

CC(C)Oc1ccc(C(=O)N[C@H](CNC(=O)CN(C)C)Cc2ccc(-c3cn4cccc([C@H](C)O)c4n3)cc2)cc1Cl [Gsk-923295a] showed an IC50 [1] of 283 nM, an IC50 [2] of 56 nM and an IC50 [3] of 42 nM. It also gave an IC50 [4] of 52 nM and an IC50 [5] of 134 nM.
